Laboratory results taken from US20230023559A1, “ARYLMETHYLENE HETEROCYCLIC COMPOUNDS AS KV1.3 POTASSIUM SHAKER CHANNEL BLOCKERS” (D. E. Shaw Research, LLC, priority 2019, published 2023).

Columns and labels:
Kv1.3 potassium channel = target: T1, Kv1.3 potassium channel (Homo sapiens, UniProt P22001); assay: Kv1.3 potassium channel blocker activity, automated whole-cell patch clamp (Patchliner); format: cell-based; conditions: CHO-K1 cells stably expressing Kv1.3; whole cell current inhibition; read-out: Kv1.3_IC50
T1 construct: expressed in transfected cells
T1 sequence (P22001 whole entry): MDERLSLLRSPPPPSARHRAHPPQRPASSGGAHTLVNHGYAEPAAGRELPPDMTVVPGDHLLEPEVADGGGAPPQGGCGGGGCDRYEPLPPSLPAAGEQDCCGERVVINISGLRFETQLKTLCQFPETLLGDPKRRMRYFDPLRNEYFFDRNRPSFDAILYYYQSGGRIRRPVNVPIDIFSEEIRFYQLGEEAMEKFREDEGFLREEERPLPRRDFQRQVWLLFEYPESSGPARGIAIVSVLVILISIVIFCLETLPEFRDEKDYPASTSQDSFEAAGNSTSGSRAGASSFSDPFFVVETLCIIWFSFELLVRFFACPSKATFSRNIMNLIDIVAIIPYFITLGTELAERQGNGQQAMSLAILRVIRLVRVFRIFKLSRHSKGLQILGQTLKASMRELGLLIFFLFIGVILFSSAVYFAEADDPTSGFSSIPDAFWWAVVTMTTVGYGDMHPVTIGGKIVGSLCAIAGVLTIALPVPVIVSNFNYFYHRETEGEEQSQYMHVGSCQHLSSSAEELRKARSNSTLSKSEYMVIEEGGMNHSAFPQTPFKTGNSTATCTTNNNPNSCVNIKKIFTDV
In short: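 CHO-K1 cells stably expressing Kv1.3, automated whole-cell patch clamp. Currents evoked by 100 ms steps from −90 mV holding to +40 mV at 0.1 Hz, sampled at 10 kHz unfiltered, P/4 leak subtraction; peak current inhibition measured, compound incubation ≤10 s between pulse trains.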

hERG channel = hERG channel (Homo sapiens, UniProt Q12809); assay: hERG electrophysiology, automated whole-cell patch clamp (Patchliner)
hERG channel, sequence (Q12809 whole entry): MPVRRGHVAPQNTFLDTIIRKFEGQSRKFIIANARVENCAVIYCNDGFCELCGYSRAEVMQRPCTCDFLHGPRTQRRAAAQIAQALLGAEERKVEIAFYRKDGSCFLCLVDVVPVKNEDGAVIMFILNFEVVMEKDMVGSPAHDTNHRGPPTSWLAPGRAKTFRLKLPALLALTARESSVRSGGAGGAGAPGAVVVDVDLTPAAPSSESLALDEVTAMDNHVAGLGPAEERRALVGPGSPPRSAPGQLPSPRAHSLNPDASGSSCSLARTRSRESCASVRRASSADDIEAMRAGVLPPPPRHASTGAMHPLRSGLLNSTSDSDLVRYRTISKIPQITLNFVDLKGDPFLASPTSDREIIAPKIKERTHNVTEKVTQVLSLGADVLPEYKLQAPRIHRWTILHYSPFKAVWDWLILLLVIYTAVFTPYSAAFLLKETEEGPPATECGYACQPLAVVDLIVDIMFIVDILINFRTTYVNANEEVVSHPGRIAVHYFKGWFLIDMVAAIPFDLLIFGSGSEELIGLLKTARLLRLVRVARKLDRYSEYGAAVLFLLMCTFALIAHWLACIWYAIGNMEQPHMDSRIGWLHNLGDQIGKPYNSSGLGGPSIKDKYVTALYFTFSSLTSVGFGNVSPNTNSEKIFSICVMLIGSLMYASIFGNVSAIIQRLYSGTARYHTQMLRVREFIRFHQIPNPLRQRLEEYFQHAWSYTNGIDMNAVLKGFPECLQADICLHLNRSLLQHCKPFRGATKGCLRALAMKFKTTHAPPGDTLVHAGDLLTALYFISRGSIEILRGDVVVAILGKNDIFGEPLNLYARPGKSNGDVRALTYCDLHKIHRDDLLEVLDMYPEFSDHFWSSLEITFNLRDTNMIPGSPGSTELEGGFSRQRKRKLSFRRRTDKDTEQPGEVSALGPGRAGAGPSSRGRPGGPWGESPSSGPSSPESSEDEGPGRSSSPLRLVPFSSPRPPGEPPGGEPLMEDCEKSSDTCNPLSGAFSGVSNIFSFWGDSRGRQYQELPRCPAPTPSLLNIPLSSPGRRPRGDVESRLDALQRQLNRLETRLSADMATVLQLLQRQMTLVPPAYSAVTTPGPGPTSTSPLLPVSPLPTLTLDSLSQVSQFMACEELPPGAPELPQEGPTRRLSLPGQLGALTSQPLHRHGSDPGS

Row | Structure (SMILES) | IC50 (Kv1.3 potassium channel) [µM] | IC50 (hERG channel) [µM]
1 | NC(c1cc(Cl)c(Cl)cc1O)C1CNC1 (stereo not shown) [Compound 52, 2-[amino(azetidin-3-yl)methyl]-4,5-dichlorophenol Trifluoroacetic Acid] | < 10 | > 30
2 | N[C@@H](c1cc(Cl)c(Cl)cc1O)C1CCN(C(=O)[C@H]2CC[C@H](O)C2)CC1 (single isomer, unassigned; isomer 1) [Compound 177] | < 10 | < 30
3 | NC(c1cc(Cl)c(Cl)cc1O)C1CCN(S(=O)(=O)N2CCCC2)CC1 (stereo not shown) [Compound 45, 2-(amino(1-(pyrrolidin-1-ylsulfonyl)piperidin-4-yl)methyl)-4,5-dichlorophenol Trifluoroacetic Acid] | < 10 | < 30
4 | N[C@@H](c1cc(Cl)c(Cl)cc1O)C1CCN(C(=O)C(CO)CO)CC1 [Compound 303, 1-[4-[(R)-amino(4,5-dichloro-2-hydroxyphenyl)methyl]piperidin-1-yl]-3-hydroxy-2-(hydroxymethyl) propan-1-one trifluoroacetic acid] | < 0.5 | > 30
5 | N[C@@H](c1c(O)cc(Cl)c(Cl)c1Cl)C1CCNCC1 (single isomer, unassigned) [Compound 61, Trifluoroacetic Acid] | < 10 | > 30
6 | CC(=O)N1CCC([C@@H](N)c2cc(Cl)c(Cl)cc2O)CC1 (single isomer, unassigned) [Compound 20] | < 0.5 | < 30
7 | CO[C@H](CO)C(=O)N1CCC([C@@H](N)c2cc(Cl)c(Cl)cc2O)CC1 [Compound 168, (2R)-1-[4-[(R)-amino(4,5-dichloro-2-hydroxyphenyl)methyl]piperidin-1-yl]-3-hydroxy-2-methoxypropan-1-one trifluoroacetic acid] | < 0.5 | > 30
8 | N[C@@H](c1cc(Cl)c(Cl)cc1O)C1CCN(C(=O)[C@@H]2CNC(=O)OC2)CC1 (single isomer, unassigned; isomer 2) [Compound 210] | < 0.5 | > 30
9 | Nc1nnc(C(=O)N2CCC([C@@H](N)c3cc(Cl)c(Cl)cc3O)CC2)o1 [Compound 155, 2-[(R)-amino[1-(5-amino-1,3,4-oxadiazole-2-carbonyl)piperidin-4-yl]methyl]-4,5-dichlorophenol trifluoroacetic acid] | < 10 | > 30
10 | C[C@H](N)C(=O)N1CCC([C@H](N)c2cc(Cl)c(Cl)cc2O)CC1 (single isomer, unassigned) [Compound 75] | < 10 | > 30
11 | CC(C)(CO)C(=O)N1CCC([C@@H](N)c2cc(Cl)c(Cl)cc2O)CC1 [Compound 142, 1-[4-[(R)-amino(4,5-dichloro-2-hydroxyphenyl)methyl]piperidin-1-yl]-3-hydroxy-2,2-dimethylpropan-1-one trifluoroacetic acid] | < 10 | < 30
